From patent publication US11040959B2, “Diprovocims: a new and potent class of TLR agonists” (The Scripps Research Institute, priority 2016, dated 2021)
Read-outs that look alike come from different tables or passages of the source.

Assays:
[1] = system: differentiated human THP-1 cells; assay: stimulated release of TNF-α from differentiated human THP-1 cells (ELISA, dose-response); format: cell-based; conditions: for EC50: Homo sapiens, read-out: EC50 (nM) (THP-1)
Procedure: A screening campaign was conducted with nearly 100,000 compounds [(a) Whitby et al., Acc. Chem. Res. 2012, 45:1698-1709; and (b) Boger et al., Angew. Chem. Int. Ed. 2003, 42:4138-4176], using a newly developed functional assay that measured the stimulated release of TNF-α from treated human THP-1 cells partially differentiated along the macrophage line [unpublished results of the inventors and co-workers]. […] The libraries screened in the efforts represent a unique compound collection populated by nontraditional compounds [(a) Whitby et al., Acc. Chem. Res. 2012, 45:1698-1709; and (b) Boger et al., Angew. Chem. Int. Ed. 2003, 42:4138-4176] designed to target protein-protein [(a) Shaginian et al., J. Am. Chem. Soc. 2009, 131:5564-5572; and (b) Whitby et al., J. Am. Chem. Soc. 2011, 133:10184-10194] or protein-DNA interactions [Stover et al., J. Am. Chem. Soc. 2009, 131:3342-3348] as well as the major enzyme classes [Otrubova et al., Bioorg. Med. Chem. Lett. 2014, 24:3807-3813].
Hits were confirmed in an ELISA assay for stimulated TNF-α release from human PMA differentiated THP-1 cells and this assay was used for establishing dose-response curves and measured EC50 values.

[2] = system: mouse macrophages; assay: stimulated release of TNF-α from mouse macrophages; format: cell-based; conditions: Macrophage, read-out: EC50 (nM) (mouse)
Excerpt: EC50 values are derived from dose-response curves for the stimulated release of TNF-α from differentiated THP-1 cells or mouse macrophages are shown beneath each appropriate structural formula of Compounds 8-12. Half maximal effective concentration (EC50) refers to the concentration of a drug, antibody or toxicant that induces a response halfway between the baseline and maximum after a specified exposure time. It is commonly used as a measure of a drug's potency.

[3] = THP-1, Table 2, TNF-α release from human THP-1 cells
[4] = Table 2, TNF-α release from mouse macrophages
[5] = THP-1, Table 3, TNF-α release from human THP-1 cells
[6] = Table 3, TNF-α release from mouse macrophages

EC50 [1, 3]	EC50 [2, 4]	EC50 [1, 5]	EC50 [2, 6]	Structure (SMILES)	fold less active/potent than diprovocim-1 (3) ([1]; human THP-1 cells)
2 nM	380 nM			O=C(N[C@H]1C[C@@H]1c1ccccc1)[C@@H]1CN(C(=O)c2ccc3cc(C(=O)N4C[C@@H](C(=O)N[C@H]5C[C@@H]5c5ccccc5)[C@H](C(=O)N[C@H]5C[C@@H]5c5ccccc5)C4)ccc3c2)C[C@H]1C(=O)N[C@H]1C[C@@H]1c1ccccc1 [Compound 44, (3S,3′S,4S,4′S)-1,1′-(Naphthalene-2,6-dicarbonyl)bis(N^3,N^4-bis((1S,2R)-2-phenylcyclopropyl)-pyrrolidine-3,4-dicarboxamide)]	> 10 fold
> 5000 nM	> 5000 nM			O=C(N[C@H]1C[C@@H]1c1ccccc1)[C@@H]1CN(C(=O)c2cccc3c(C(=O)N4C[C@@H](C(=O)N[C@H]5C[C@@H]5c5ccccc5)[C@H](C(=O)N[C@H]5C[C@@H]5c5ccccc5)C4)cccc23)C[C@H]1C(=O)N[C@H]1C[C@@H]1c1ccccc1 [Compound 47, (3S,3′S,4S,4′S)-1,1′-(Naphthalene-1,5-dicarbonyl)bis(N^3,N^4-bis((1S,2R)-2-phenylcyclopropyl)-pyrrolidine-3,4-dicarboxamide)]	
		4 nM	270 nM	O=C(N[C@H]1C[C@@H]1c1ccccc1)[C@@H]1CN(C(=O)c2ccc(C(=O)N3C[C@@H](C(=O)N[C@H]4C[C@@H]4c4ccccc4)[C@H](C(=O)N[C@H]4C[C@@H]4c4ccccc4)C3)nc2)C[C@H]1C(=O)N[C@H]1C[C@@H]1c1ccccc1 [Compound 51, (3S,3′S,4S,4′S)-1,1′-(Pyridine-2,5-dicarbonyl)-bis(N^3,N^4-bis((1S,2R)-2-phenylcyclopropyl)-pyrrolidine-3,4-dicarboxamide)]	
		0.2 nM	130 nM	O=C(N[C@H]1C[C@@H]1c1ccccc1)[C@@H]1CN(C(=O)c2ccc(C(=O)N3C[C@@H](C(=O)N[C@H]4C[C@@H]4c4ccccc4)[C@H](C(=O)N[C@H]4C[C@@H]4c4ccccc4)C3)c(O)c2)C[C@H]1C(=O)N[C@H]1C[C@@H]1c1ccccc1 [Compound 53, (3S,3′S,4S,4′S)-1,1′-(2-Hydroxyterephthaloyl)-bis(N^3,N^4-bis((1S,2R)-2-phenylcyclopropyl)pyrrolidine-3,4-dicarboxamide)]	
		20 nM	> 5000 nM	O=C(N[C@H]1C[C@@H]1c1ccccc1)[C@@H]1CN(C(=O)c2ccc(C(=O)N3C[C@@H](C(=O)N[C@H]4C[C@@H]4c4ccccc4)[C@H](C(=O)N[C@H]4C[C@@H]4c4ccccc4)C3)c([N+](=O)[O-])c2)C[C@H]1C(=O)N[C@H]1C[C@@H]1c1ccccc1 [Compound 54, (3S,3′S,4S,4′S)-1,1′-(2-Nitroterephthaloyl)-bis(N^3,N^4-bis((1S,2R)-2-phenylcyclopropyl)pyrrolidine-3,4-dicarboxamide)]	
		1 nM	140 nM	Nc1cc(C(=O)N2C[C@@H](C(=O)N[C@H]3C[C@@H]3c3ccccc3)[C@H](C(=O)N[C@H]3C[C@@H]3c3ccccc3)C2)ccc1C(=O)N1C[C@@H](C(=O)N[C@H]2C[C@@H]2c2ccccc2)[C@H](C(=O)N[C@H]2C[C@@H]2c2ccccc2)C1 [Compound 55, (3S,3′S,4S,4′S)-1,1′-(2-Amino-terephthaloyl)-bis(N^3,N^4-bis((1S,2R)-2-phenylcyclopropyl)-pyrrolidine-3,4-dicarboxamide)]	
		30 nM	250 nM	COc1cc(C(=O)N2C[C@@H](C(=O)N[C@H]3C[C@@H]3c3ccccc3)[C@H](C(=O)N[C@H]3C[C@@H]3c3ccccc3)C2)ccc1C(=O)N1C[C@@H](C(=O)N[C@H]2C[C@@H]2c2ccccc2)[C@H](C(=O)N[C@H]2C[C@@H]2c2ccccc2)C1 [Compound 57, (3S,3′S,4S,4′S)-1,1′-(2-Methoxy-terephthaloyl)-bis(N^3,N^4-bis((1S,2R)-2-phenylcyclopropyl)-pyrrolidine-3,4-dicarboxamide)]	
		5 nM	10 nM	O=C(N[C@H]1C[C@@H]1c1ccccc1)[C@@H]1CN(C(=O)c2ccc(C(=O)N3C[C@@H](C(=O)N[C@H]4C[C@@H]4c4ccccc4)[C@H](C(=O)N[C@H]4C[C@@H]4c4ccccc4)C3)c(Br)c2)C[C@H]1C(=O)N[C@H]1C[C@@H]1c1ccccc1 [Compound 58, (3S,3′S,4S,4′S)-1,1′-(2-Bromoterephthaloyl)-bis(N^3,N^4-bis((1S,2R)-2-phenylcyclopropyl)pyrrolidine-3,4-dicarboxamide)]	

More lines, now with the values behind:

Structure (SMILES)	EC50 [1, 3]	EC50 [2, 4]	EC50 [1, 5]	EC50 [2, 6]	fold less active/potent than diprovocim-1 (3) ([1]; human THP-1 cells)
O=C(N[C@H]1C[C@@H]1c1ccccc1)[C@@H]1CN(C(=O)c2ccc(C(=O)N3C[C@@H](C(=O)N[C@H]4C[C@@H]4c4ccccc4)[C@H](C(=O)N[C@H]4C[C@@H]4c4ccccc4)C3)c3ccccc23)C[C@H]1C(=O)N[C@H]1C[C@@H]1c1ccccc1 [Compound 45, (3S,3′S,4S,4′S)-1,1′-(Naphthalene-1,4-dicarbonyl)bis(N^3,N^4-bis((1S,2R)-2-phenylcyclopropyl)-pyrrolidine-3,4-dicarboxamide)]	> 5000 nM	> 5000 nM			
O=C(N[C@H]1C[C@@H]1c1ccccc1)[C@@H]1CN(C(=O)Cc2cccc(CC(=O)N3C[C@@H](C(=O)N[C@H]4C[C@@H]4c4ccccc4)[C@H](C(=O)N[C@H]4C[C@@H]4c4ccccc4)C3)c2)C[C@H]1C(=O)N[C@H]1C[C@@H]1c1ccccc1 [Compound 46, (3S,3′S,4S,4′S)-1,1′-((1,3-Phenylene)diacetyl)-bis(N^3,N^4-bis((1S,2R)-2-phenylcyclopropyl)-pyrrolidine-3,4-dicarboxamide)]	> 5000 nM	> 5000 nM			
O=C(N[C@H]1C[C@@H]1c1ccccc1)[C@@H]1CN(C(=O)Cc2ccc(CC(=O)N3C[C@@H](C(=O)N[C@H]4C[C@@H]4c4ccccc4)[C@H](C(=O)N[C@H]4C[C@@H]4c4ccccc4)C3)cc2)C[C@H]1C(=O)N[C@H]1C[C@@H]1c1ccccc1 [Compound 48, (3S,3′S,4S,4′S)-1,1′-((1,4-Phenylene)diacetyl)-bis(N^3,N^4-bis((1S,2R)-2-phenylcyclopropyl)-pyrrolidine-3,4-dicarboxamide)]	> 5000 nM	> 5000 nM			
O=C(N[C@H]1C[C@@H]1c1ccccc1)[C@@H]1CN(C(=O)c2ccc(C(=O)N3C[C@@H](C(=O)N[C@H]4C[C@@H]4c4ccccc4)[C@H](C(=O)N[C@H]4C[C@@H]4c4ccccc4)C3)s2)C[C@H]1C(=O)N[C@H]1C[C@@H]1c1ccccc1 [Compound 49, (3S,3′S,4S,4′S)-1,1′-(Thiophene-2,5-dicarbonyl)-bis(N^3,N^4-bis((1S,2R)-2-phenylcyclopropyl)-pyrrolidine-3,4-dicarboxamide)]			350 nM	> 5000 nM	
O=C(N[C@H]1C[C@@H]1c1ccccc1)[C@@H]1CN(C(=O)c2cnc(C(=O)N3C[C@@H](C(=O)N[C@H]4C[C@@H]4c4ccccc4)[C@H](C(=O)N[C@H]4C[C@@H]4c4ccccc4)C3)cn2)C[C@H]1C(=O)N[C@H]1C[C@@H]1c1ccccc1 [Compound 50, (3S,3′S,4S,4′S)-1,1′-(Pyrazine-2,5-dicarbonyl)-bis(N^3,N^4-bis((1S,2R)-2-phenylcyclopropyl)-pyrrolidine-3,4-dicarboxamide)]			130 nM	> 5000 nM	
O=C(N[C@H]1C[C@@H]1c1ccccc1)[C@@H]1CN(C(=O)/C=C/C=C/C(=O)N2C[C@@H](C(=O)N[C@H]3C[C@@H]3c3ccccc3)[C@H](C(=O)N[C@H]3C[C@@H]3c3ccccc3)C2)C[C@H]1C(=O)N[C@H]1C[C@@H]1c1ccccc1 [Compound 52, (3S,3′S,4S,4′S)-1,1′-((2E,4E)-Hexa-2,4-dienedioyl)-bis(N^3,N^4-bis((1S,2R)-2-phenylcyclopropyl)-pyrrolidine-3,4-dicarboxamide)]			> 5000 nM	> 5000 nM	
C#CCOc1cc(C(=O)N2C[C@@H](C(=O)N[C@H]3C[C@@H]3c3ccccc3)[C@H](C(=O)N[C@H]3C[C@@H]3c3ccccc3)C2)ccc1C(=O)N1C[C@@H](C(=O)N[C@H]2C[C@@H]2c2ccccc2)[C@H](C(=O)N[C@H]2C[C@@H]2c2ccccc2)C1 [Compound 56, (3S,3′S,4S,4′S)-1,1′-(2-(Prop-2-yn-1-yloxy)-terephthaloyl)bis(N^3,N^4-bis((1S,2R)-2-phenylcyclo-propyl)pyrrolidine-3,4-dicarboxamide)]			15 nM	750 nM	
O=C(N[C@H]1C[C@@H]1c1ccccc1)[C@@H]1CN(C(=O)c2cc(O)c(C(=O)N3C[C@@H](C(=O)N[C@H]4C[C@@H]4c4ccccc4)[C@H](C(=O)N[C@H]4C[C@@H]4c4ccccc4)C3)cc2O)C[C@H]1C(=O)N[C@H]1C[C@@H]1c1ccccc1 [Compound 59, (3S,3′S,4S,4′S)-1,1′-(2,5-Dihydroxy-terephthaloyl)bis(N^3,N^4-bis((1S,2R)-2-phenylcyclo-propyl)-pyrrolidine-3,4-dicarboxamide)]			20 nM	> 5000 nM	
